# Test results as given in US20250326753A1, “DUAL CXCR4-BTK INHIBITORS” (X4 Pharmaceuticals, Inc., priority 2022, published 2025).
# Where two headings read alike, the source gives them in different places.
# How the values were obtained:
# Assay type in all cases: biochemical
# FRK = target: T1, FRK (Homo sapiens, UniProt P42685); assay: PanQinase kinase panel: FRK; conditions: read-out: INHIBITORY EFFECT @ 1 uM: FRK
# T1 construct: purchased Reaction Biology Europe GmbH
# Procedure: (§1) Screening procedures were performed in accordance with the company's on-line protocol [accessed on-line Mar.
# (§2) For each kinase, the median value of the cpm of three wells was defined as “low control” (n=3). This value reflects unspecific binding of radioactivity to the plate in the absence of a protein kinase but in the presence of the substrate. Additionally, for each kinase the median value of the cpm of three other wells was taken as the “high control,” i.e. full activity in the absence of any inhibitor (n=3). The difference between high and low control of each enzyme was taken as 100% activity.
# (§3) As part of the data evaluation the low control of each kinase was subtracted from the high control value as well as from their corresponding “compound values”. The residual activity (in %) for each compound well was calculated by using the following formula: Res. Activity (%)=100×[(signal of compound−low control)/(high control−low control)].
# RET = target: T2, RET (Homo sapiens, UniProt P07949); assay: PanQinase kinase panel: RET; conditions: read-out: INHIBITORY EFFECT @ 1 uM: RET
# T2 construct: purchased Reaction Biology Europe GmbH
# T2 sequence (P07949 29-1114): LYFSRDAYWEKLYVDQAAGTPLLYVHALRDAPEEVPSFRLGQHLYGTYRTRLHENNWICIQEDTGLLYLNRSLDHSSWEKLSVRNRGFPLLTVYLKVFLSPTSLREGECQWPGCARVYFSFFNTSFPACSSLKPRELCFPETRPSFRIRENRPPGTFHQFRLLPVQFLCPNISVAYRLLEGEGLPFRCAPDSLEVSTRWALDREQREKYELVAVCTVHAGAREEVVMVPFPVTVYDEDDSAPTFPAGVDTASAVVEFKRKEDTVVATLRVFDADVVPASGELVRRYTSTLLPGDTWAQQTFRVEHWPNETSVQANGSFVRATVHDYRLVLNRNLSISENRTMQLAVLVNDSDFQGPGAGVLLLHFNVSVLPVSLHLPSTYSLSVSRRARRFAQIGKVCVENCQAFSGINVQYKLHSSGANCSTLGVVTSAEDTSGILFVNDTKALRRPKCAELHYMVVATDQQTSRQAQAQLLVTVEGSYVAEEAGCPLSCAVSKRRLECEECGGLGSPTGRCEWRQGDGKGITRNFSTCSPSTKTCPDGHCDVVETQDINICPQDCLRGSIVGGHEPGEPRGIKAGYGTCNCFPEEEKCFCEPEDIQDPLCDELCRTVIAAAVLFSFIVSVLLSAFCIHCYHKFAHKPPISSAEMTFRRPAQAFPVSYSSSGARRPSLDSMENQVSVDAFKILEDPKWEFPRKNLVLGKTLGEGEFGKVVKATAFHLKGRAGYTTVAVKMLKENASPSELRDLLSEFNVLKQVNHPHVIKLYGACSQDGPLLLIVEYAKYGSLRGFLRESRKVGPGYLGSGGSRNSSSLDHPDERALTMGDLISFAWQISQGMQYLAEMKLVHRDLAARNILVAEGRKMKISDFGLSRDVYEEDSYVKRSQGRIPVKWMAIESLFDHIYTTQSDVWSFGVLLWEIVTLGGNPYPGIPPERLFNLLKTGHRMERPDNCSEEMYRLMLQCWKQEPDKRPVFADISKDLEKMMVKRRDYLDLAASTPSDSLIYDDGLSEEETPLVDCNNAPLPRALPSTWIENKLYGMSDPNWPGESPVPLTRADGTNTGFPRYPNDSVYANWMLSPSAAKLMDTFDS
# Procedure: as §1, §2, §3
# RIPK2 = target: T3, RIPK2 (Homo sapiens, UniProt O43353); assay: PanQinase kinase panel: RIPK2; conditions: read-out: INHIBITORY EFFECT @ 1 uM: RIPK2
# T3 construct: purchased Reaction Biology Europe GmbH
# T3 sequence (O43353 whole entry): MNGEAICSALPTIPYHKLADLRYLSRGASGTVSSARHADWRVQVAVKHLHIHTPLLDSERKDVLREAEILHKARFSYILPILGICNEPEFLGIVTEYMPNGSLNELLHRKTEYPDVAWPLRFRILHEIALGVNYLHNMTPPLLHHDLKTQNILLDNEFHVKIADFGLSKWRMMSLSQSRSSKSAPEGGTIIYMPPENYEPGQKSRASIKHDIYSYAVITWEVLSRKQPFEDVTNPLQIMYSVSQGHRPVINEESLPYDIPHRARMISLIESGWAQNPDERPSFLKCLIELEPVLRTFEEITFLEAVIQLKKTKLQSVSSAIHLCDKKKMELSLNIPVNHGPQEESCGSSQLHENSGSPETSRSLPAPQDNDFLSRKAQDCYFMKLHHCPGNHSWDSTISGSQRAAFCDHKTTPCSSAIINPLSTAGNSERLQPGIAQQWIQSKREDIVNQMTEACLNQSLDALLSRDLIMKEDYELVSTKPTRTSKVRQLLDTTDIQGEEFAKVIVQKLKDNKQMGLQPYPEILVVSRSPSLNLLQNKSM
# Procedure: as §1, §2, §3
# LCK = target: T4, LCK (Homo sapiens, UniProt P06239); assay: PanQinase kinase panel: LCK; conditions: read-out: INHIBITORY EFFECT @ 1 uM: LCK
# T4 construct: purchased Reaction Biology Europe GmbH
# T4 sequence (P06239 whole entry): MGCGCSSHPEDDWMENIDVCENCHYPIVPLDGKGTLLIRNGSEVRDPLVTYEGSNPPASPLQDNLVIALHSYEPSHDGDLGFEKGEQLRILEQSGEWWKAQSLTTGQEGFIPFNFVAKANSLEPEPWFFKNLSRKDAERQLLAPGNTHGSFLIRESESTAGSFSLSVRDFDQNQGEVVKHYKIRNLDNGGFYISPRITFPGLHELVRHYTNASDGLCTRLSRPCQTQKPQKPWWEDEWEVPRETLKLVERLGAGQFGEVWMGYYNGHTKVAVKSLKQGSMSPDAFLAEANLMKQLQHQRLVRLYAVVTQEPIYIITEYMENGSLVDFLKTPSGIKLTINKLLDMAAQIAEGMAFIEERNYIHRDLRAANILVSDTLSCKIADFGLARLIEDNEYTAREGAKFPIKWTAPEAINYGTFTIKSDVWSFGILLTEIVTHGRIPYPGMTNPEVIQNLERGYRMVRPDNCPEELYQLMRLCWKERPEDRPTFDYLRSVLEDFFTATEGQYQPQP
# Procedure: as §1, §2, §3
# DDR2 = target: T5, DDR2 (Homo sapiens, UniProt Q16832); assay: PanQinase kinase panel: DDR2
# T5 construct: purchased Reaction Biology Europe GmbH
# T5 sequence (Q16832 22-855): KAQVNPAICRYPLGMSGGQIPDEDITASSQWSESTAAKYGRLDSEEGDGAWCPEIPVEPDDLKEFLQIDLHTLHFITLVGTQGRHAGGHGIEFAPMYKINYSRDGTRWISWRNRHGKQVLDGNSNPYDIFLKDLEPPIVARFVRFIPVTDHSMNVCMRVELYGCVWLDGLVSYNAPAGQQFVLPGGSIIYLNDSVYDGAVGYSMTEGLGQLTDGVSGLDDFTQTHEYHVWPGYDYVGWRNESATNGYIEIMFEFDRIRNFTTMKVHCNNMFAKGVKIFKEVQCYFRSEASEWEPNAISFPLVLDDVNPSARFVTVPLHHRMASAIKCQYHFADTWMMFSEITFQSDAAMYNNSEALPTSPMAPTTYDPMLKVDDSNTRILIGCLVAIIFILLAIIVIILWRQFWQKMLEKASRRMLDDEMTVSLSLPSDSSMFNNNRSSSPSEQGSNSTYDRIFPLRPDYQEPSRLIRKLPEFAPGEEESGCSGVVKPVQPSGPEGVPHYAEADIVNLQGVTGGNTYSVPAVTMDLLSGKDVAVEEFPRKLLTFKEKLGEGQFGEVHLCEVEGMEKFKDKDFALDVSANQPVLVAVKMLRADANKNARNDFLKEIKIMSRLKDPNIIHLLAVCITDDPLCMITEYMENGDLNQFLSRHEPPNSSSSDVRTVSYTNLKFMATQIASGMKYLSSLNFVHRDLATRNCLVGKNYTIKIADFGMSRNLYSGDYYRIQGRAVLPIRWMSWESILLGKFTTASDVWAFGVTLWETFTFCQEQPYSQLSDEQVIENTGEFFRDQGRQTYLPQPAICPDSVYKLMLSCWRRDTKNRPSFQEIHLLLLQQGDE
# Procedure: as §1, §2, §3
# TRKA = target: T6, TRKA (Homo sapiens, UniProt P04629); assay: PanQinase kinase panel: TRKA
# T6 construct: purchased Reaction Biology Europe GmbH
# Procedure: as §1, §2, §3
# MEK1 = target: T7, MEK1 (Homo sapiens, UniProt Q02750); assay: PanQinase kinase panel: MEK1; conditions: read-out: INHIBITORY EFFECT @ 1 uM: MEK1
# T7 construct: purchased Reaction Biology Europe GmbH
# T7 sequence (Q02750 whole entry): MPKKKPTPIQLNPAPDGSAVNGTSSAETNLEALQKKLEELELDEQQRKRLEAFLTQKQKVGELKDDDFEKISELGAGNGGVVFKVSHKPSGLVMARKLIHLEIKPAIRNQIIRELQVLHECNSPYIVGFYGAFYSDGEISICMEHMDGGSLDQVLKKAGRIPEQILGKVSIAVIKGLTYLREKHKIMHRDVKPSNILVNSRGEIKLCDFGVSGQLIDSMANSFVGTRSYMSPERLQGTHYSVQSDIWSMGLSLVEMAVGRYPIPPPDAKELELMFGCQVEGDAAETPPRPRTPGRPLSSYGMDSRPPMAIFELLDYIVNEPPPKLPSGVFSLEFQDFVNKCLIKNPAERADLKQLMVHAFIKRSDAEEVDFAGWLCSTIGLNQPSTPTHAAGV
# Procedure: as §1, §2, §3
# p38beta = target: T8, p38beta (Homo sapiens, UniProt Q15759); assay: PanQinase kinase panel: p38beta; conditions: read-out: INHIBITORY EFFECT @ 1 uM: p38beta
# T8 construct: purchased Reaction Biology Europe GmbH
# Procedure: as §1, §2, §3
# PDGFRalpha = target: T9, PDGFRalpha (Homo sapiens, UniProt P16234); assay: PanQinase kinase panel: PDGFRalpha; conditions: read-out: INHIBITORY EFFECT @ 1 uM: PDGFRalpha
# T9 construct: purchased Reaction Biology Europe GmbH
# T9 sequence (P16234 24-1089): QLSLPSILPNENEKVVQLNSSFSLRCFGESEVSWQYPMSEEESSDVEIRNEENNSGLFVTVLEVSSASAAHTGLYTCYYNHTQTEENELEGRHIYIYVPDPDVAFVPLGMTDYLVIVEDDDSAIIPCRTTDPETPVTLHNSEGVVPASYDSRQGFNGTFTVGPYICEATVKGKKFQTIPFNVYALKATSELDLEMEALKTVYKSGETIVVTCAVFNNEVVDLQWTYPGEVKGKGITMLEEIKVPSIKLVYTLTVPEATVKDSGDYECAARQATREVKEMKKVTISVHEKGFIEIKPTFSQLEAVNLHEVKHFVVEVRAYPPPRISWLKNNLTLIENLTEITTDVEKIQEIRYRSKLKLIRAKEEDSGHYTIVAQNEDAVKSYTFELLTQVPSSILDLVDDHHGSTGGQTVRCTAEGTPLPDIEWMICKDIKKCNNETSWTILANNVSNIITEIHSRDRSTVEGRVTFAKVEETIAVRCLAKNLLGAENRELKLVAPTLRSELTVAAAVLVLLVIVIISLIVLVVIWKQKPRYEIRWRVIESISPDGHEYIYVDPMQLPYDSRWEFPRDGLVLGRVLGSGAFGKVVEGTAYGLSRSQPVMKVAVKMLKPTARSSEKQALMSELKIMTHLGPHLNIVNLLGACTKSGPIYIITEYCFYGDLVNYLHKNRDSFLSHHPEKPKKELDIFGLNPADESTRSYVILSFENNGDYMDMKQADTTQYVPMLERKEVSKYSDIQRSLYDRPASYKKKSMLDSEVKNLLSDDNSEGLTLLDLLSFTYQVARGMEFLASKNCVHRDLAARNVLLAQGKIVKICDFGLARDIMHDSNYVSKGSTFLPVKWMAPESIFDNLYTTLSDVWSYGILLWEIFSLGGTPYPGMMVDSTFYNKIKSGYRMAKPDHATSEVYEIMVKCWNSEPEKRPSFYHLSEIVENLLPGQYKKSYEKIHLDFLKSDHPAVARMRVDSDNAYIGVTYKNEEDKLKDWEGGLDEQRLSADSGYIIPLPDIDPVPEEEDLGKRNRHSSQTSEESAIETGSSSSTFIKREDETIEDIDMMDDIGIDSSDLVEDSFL
# Procedure: as §1, §2, §3
# TRKB = target: T10, TRKB (Homo sapiens, UniProt Q16620); assay: PanQinase kinase panel: TRKB; conditions: read-out: INHIBITORY EFFECT @ 1 uM: TRKB
# T10 construct: purchased Reaction Biology Europe GmbH
# Procedure: as §1, §2, §3
# [1] = test system: 340 wild-type protein kinases; assay: PanQinase wild-type kinase panel, selectivity score; conditions: 1 μM; for Selectivity Score: share of kinases with residual activity <50%, 340 wild-type protein kinase assays
# Procedure: as §1
# The selectivity score for a particular compound at a particular concentration was calculated by using the following formula: Selectivity Score=(count of data points <50%)/(total number of data points).
# MAP3K11 = target: T11, MAP3K11 (Homo sapiens, UniProt Q16584); assay: PanQinase kinase panel: MAP3K11
# T11 construct: purchased Reaction Biology Europe GmbH
# T11 sequence (Q16584 whole entry): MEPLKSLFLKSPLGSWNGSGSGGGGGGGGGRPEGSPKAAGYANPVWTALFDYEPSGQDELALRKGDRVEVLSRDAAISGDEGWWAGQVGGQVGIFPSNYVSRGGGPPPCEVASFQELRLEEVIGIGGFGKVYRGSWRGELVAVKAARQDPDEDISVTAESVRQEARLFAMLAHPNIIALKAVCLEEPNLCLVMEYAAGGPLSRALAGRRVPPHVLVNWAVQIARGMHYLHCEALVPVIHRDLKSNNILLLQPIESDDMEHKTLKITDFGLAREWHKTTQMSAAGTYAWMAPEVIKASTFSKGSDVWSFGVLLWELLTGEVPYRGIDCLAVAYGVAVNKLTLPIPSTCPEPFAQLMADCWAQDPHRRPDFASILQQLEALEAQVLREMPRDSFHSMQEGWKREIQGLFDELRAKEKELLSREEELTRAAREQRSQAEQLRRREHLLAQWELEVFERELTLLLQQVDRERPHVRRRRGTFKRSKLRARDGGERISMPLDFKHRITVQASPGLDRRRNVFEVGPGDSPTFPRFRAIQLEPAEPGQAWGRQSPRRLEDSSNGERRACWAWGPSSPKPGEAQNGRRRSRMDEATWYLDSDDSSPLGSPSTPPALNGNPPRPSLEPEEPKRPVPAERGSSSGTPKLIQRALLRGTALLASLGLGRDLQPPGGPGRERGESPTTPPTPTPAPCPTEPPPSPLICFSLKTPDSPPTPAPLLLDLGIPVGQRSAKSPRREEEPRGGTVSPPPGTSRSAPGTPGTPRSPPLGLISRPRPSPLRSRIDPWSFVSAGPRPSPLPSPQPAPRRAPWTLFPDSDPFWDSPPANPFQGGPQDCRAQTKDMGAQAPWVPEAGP
# Procedure: as §1, §2
# As part of the data evaluation the low control of each kinase was subtracted from the high control value as well as from their corresponding “compound values”.
# [2] = at 1 μM, read-out: inhibition of DDR2
# [3] = read-out: INHIBITORY EFFECT @ 1 uM: DDR2
# [4] = at 1 μM, read-out: inhibition of TRKA
# [5] = read-out: INHIBITORY EFFECT @ 1 uM: TRKA
# [6] = read-out: INHIBITORY EFFECT @ 1 uM: MAP3K11
# T1 sequence (P42685 whole entry): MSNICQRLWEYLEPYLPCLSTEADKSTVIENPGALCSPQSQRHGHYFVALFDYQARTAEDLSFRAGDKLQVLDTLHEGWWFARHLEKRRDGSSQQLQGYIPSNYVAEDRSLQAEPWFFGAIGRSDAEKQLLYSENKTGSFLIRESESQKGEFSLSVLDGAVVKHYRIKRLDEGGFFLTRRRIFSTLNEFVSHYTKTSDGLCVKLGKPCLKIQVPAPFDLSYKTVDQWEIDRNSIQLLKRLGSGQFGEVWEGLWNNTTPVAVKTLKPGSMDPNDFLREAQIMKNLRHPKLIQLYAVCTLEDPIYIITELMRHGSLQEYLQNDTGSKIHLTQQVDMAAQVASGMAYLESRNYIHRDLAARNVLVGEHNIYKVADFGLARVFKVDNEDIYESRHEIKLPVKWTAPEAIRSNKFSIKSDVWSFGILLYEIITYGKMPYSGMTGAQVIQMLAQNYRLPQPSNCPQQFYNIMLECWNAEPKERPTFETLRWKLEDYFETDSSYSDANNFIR
Selectivity Score [1],SMILES,inhibition at 1 µM (FRK),inhibition at 1 µM (RET),inhibition at 1 µM (RIPK2),inhibition at 1 µM (LCK),inhibition at 1 µM (DDR2; [2]),inhibition at 1 µM (DDR2; [3]),inhibition at 1 µM (TRKA; [4]),inhibition at 1 µM (TRKA; [5]),inhibition at 1 µM (MEK1),inhibition at 1 µM (p38beta),inhibition at 1 µM (PDGFRalpha),inhibition at 1 µM (TRKB),"kinase selectivity profile ([1]; panel of approximately 336 wild-type kinases, in words)","inhibition at 1 µM (MAP3K11; at 1 μM, read-out: inhibition of MAP3K11)",inhibition at 1 µM (MAP3K11; [6])
0.265,Cc1cccnc1[C@H]1CCC[C@@H](c2ncccc2C)N1CCCCNC(=O)[C@@H]1CC[C@@H](Nc2ncnc3[nH]cc(C(=O)c4ccc(Oc5ccccc5)cc4Cl)c23)CO1 [Compound I-16],,,,,,,,,,,,,,,
0.221,Cc1cccnc1[C@H]1CCC[C@@H](c2ncccc2C)N1CCCCNC(=O)OC[C@@H]1CC[C@@H](Nc2ncnc3[nH]cc(C(=O)c4ccc(Oc5ccccc5)cc4Cl)c23)CO1 [Compound I-18],,,,,,,,,,,,,,,

# More lines, now with the values behind:
SMILES,Selectivity Score [1],inhibition at 1 µM (FRK),inhibition at 1 µM (RET),inhibition at 1 µM (RIPK2),inhibition at 1 µM (LCK),inhibition at 1 µM (DDR2; [2]),inhibition at 1 µM (DDR2; [3]),inhibition at 1 µM (TRKA; [4]),inhibition at 1 µM (TRKA; [5]),inhibition at 1 µM (MEK1),inhibition at 1 µM (p38beta),inhibition at 1 µM (PDGFRalpha),inhibition at 1 µM (TRKB),"kinase selectivity profile ([1]; panel of approximately 336 wild-type kinases, in words)","inhibition at 1 µM (MAP3K11; at 1 μM, read-out: inhibition of MAP3K11)",inhibition at 1 µM (MAP3K11; [6])
"O=C(c1ccc(Oc2ccccc2)cc1Cl)c1c[nH]c2ncnc(N[C@@H]3CC[C@@H](CO)OC3)c12 [ARQ-531, (2-chloro-4-phenoxyphenyl) (4-(((3R,6S)-6-(hydroxymethyl)tetrahydro-2H-pyran-3-yl)amino)-7H-pyrrolo[2,3-d]pyrimidin-5-yl) methanone]",,70 to 89%,90 to 100%,90 to 100%,90 to 100%,≥ 50%,50 to 69%,≥ 50%,90 to 100%,50 to 69%,70 to 89%,70 to 89%,< 50%,,,
"Cc1cccnc1[C@H]1CCC[C@@H](c2ncccc2C)N1CCN1CCN(C(=O)c2ccc(-c3cc4c(-c5cccc(NC(=O)c6ccccc6)c5C)ncnc4[nH]3)cc2)CC1 [Compound I-10, N-(3-(6-(4-(4-(2-((2R,6S)-2,6-bis(3-methylpyridin-2-yl)piperidin-1-yl)ethyl)piperazine-1-carbonyl)phenyl)-7H-pyrrolo[2,3-d]pyrimidin-4-yl)-2-methylphenyl)benzamide]",0.053,< 50%,< 50%,< 50%,< 50%,50 to 89%,70 to 89%,50 to 89%,70 to 89%,< 50%,< 50%,< 50%,< 50%,surprisingly high selectivity for BTK inhibition,50 to 89%,50 to 69%
Cc1cc(-c2ccnc(Nc3cnn(CCN4[C@@H](c5ncccc5C)CCC[C@H]4c4ncccc4C)c3)n2)ccc1CNC(=O)N1CC(OC(C)C)C1 [Compound I-11],0.032,,,,,,,,,,,,,,,
"COc1ccc(F)cc1C(=O)NCc1ccc(-c2nn([C@@H](C)C(F)(F)F)c(N)c2C(N)=O)cc1 [LOXO-305, pirtobrutinib]",,< 50%,50 to 69%,< 50%,< 50%,,< 50%,,< 50%,< 50%,< 50%,< 50%,50 to 69%,,,< 50%
"C=CC(=O)N1CCC([C@@H]2CCNc3c(C(N)=O)c(-c4ccc(Oc5ccccc5)cc4)nn32)CC1 [Zanubrutinib, (7S)-2-(4-phenoxyphenyl)-7-(1-prop-2-enoylpiperidin-4-yl)-4,5,6,7-tetrahydropyrazolo[1,5-a]pyrimidine-3-carboxamide]",,50 to 69%,< 50%,50 to 69%,< 50%,,< 50%,,< 50%,< 50%,< 50%,< 50%,< 50%,,,< 50%
